Like-named read-outs stand apart in the source and are kept apart here.
Legend:
[1] = system: Ba/F3 cell EGFR (ex19del); assay: Ba/F3-EGFR cell viability assay (CellTiter-Glo); assay type: cell-based, murine; details: Mus musculus, BaF3, Mean
Experimental: (§1) Human full-length EGFR harboring a particular mutation or wild-type EGFR was cloned into the PB-CMV-MCS-EF1-RFP-T2A-Puro PiggyBac vector (System Biosciences) to construct the EGFR PiggyBac vector plasmids. Each EGFR PiggyBac plasmid was simultaneously transfected into Ba/F3 cells with Super PiggyBac Transposase Expression Vector (System Biosciences) using a Nucleofector (Lonza). Afterward, the cells were treated with puromycin to select the cells which were stably integrated EGFR.
(§2) In Ba/F3-EGFR (wild-type) cells, hEGF (FUJIFILM Wako Pure Chemical Corporation) was added at a final concentration of 50 ng/mL. […] The cells were treated with appropriately diluted test compounds in DMSO and incubated for 3 days. Cell viability was analyzed using CellTiter-Glo 2.0 (Promega), according to the manufacturer’s protocol. The IC50 values were calculated by nonlinear regression analysis using XLfit.

[2] = target: human recombinant EGFR Ex19del/T790M/C797S (Homo sapiens, UniProt P00533, C797S/DEL746-750/T790M); assay: EGFR biochemical kinetics assay (PhosphoSens Kinase Assay), Ki
[3] = Assessment of brain penetrability in mice (plasma and brain PK); assay type: in vivo; details: BALB/cAJcl-nu/nu, mouse; for AUC(0-t): plasma, male nude mice, read-out: AUC0-24 hr Plasma; for Kp uu / Kp: male, oral; for Kp uu: brain, unbound brain AUC / unbound plasma AUC; for Kp: brain AUC0-24 hr / plasma AUC0-24 hr
Experimental: Prior to the study, the animal use protocol was reviewed and approved by the Institutional Animal Care and Use Committee in Sekisui Medical Co., Ltd., and the study was conducted in accordance with the regulations and guidelines of animal experiments specified by the Testing Facility in Sekisui Medical Co., Ltd. On the day of administration, the mice were assigned to groups by the stratification body weight average method. […] After centrifugation of the blood samples, the collected plasma samples were stored in an ultra-low-temperature freezer until the analysis. At the same time, the brain samples also collected, weighed, and mixed with PBS at ratio of 1:3 (w/v). After adding zirconia beads to the container, the brain samples were homogenized with Shake Master Auto (Biomedical Science) for 3 min to prepare the brain homogenate. The homogenate samples were stored in an ultra-low-temperature freezer until the analysis. […] The areas under the concentration-time curve from 0 to 24 h (AUC0-24 hr) of plasma and brain were calculated from mean concentration values using Phoenix WinNonlin 8.1 (Certara). Kp,brain was determined by dividing the total brain AUC0-24 hr by the total plasma AUC0-24 hr. Kp,uu,brain was determined by dividing the unbound brain AUC0-24 hr by the unbound plasma AUC0-24 hr, and the unbound AUC0-24 hr was determined by multiplying the total AUC0-24 hr by the respective tissue unbound fraction.

[4] = target: human recombinant EGFR L858R/T790M (Homo sapiens, UniProt P00533, L858R/T790M); assay: EGFR biochemical kinetics assay (PhosphoSens Kinase Assay), Ki
[5] = target: recombinant wild-type and mutated EGFR; assay: Off-chip mobility shift assay (MSA) at ATP concentrations near Km; assay type: biochemical, human; details: ATP concentrations near the Km values for ATP in each recombinant EGFR
Experimental: The reaction mixtures and test compounds dissolved in dimethylsulfoxide (DMSO) were mixed and incubated for 1 hour at room temperature. The reaction was terminated by adding the Termination Buffer of QuickScout Screening Assist MSA (Carna Biosciences). The reaction mixture was applied to a LabChip system (PerkinElmer), and the product (P) and substrate (S) peptide peaks were separated and quantified. The kinase reaction was evaluated by calculating the product ratio from the peak heights of the P and S peptides (P/(P + S)). […] IC50 values were calculated from the concentration vs %inhibition curves by fitting to a four-parameter logistic curve using Microsoft Excel 2013 with the Solver add-in software.
Supplementary Fig 1. Chemical structure of EGFR-TKIs in the series of pyrrolopyrimidine-quinoline chemical core structure. The chemical structures of TAS3351 (a), TAS3351 analog, […]
the pyrrolopyrimidine-quinoline chemical core structure. Red-highlighted parts of the chemical structures indicate the pyrrolopyrimidine-quinoline. […]
inhibition was measured via Off-chip Mobility Shift Assay (MSA) using recombinant wild-type and mutated EGFR in the ATP concentration relevant to Km values of each human recombinant EGFR. ATP concentrations in the assay in each recombinant EGFR are as follows: wild type, ex19del/T790M, and […]
indicate standard deviation (s.d.) from triplicates. […]

[6] = target: human recombinant EGFR Ex19del (Homo sapiens, UniProt P00533, DEL746-750); assay: EGFR biochemical kinetics assay (PhosphoSens Kinase Assay), Ki
255 kinases = assay: Kinome-wide selectivity, Off-chip Mobility Shift Assay; assay type: biochemical; details: 20 nmol/L
Experimental: However, the potential secondary effects of the pharmacological inhibition of these eight kinases, with IC50 values below that of the wild-type EGFR, remain to be elucidated.
Supplementary Fig 3. […] The […]
plasmon resonance (SPR) analysis with single-cycle kinetics. KD values were calculated via curve fitting with 1:1 binding model or steady-state affinity evaluation. Mean KD values and standard deviation (s.d.) obtained from three independent experiments are shown.
Supplementary Fig 4. Kinome-wide selectivity of TAS3351. […]
determination of the IC50 values. […]

[7] = system: A-431 (wild-type) xenograft; assay type: in vivo, mouse; details: at least at doses below 50 mg/kg; once-daily oral
Experimental: The tumor volumes were calculated using the following equation: Tumor Volume (mm^3) = 0.5 × major axis (mm) × minor axis (mm) × minor axis (mm). […] Tukey’s test (SAS with EXSUS) was used to evaluate statistical significance (p ≥ 0.05) on the logarithmically transformed mean tumor volume in each allocated group on Days 0 or 1, and no statistical significance was confirmed before initiating the experiments. During the experiments, the mice in each labeled cage were identified by the position of the cut on their pinnae. The test compounds were administered orally at a dose of 10 mL/kg. The tumor volume and body weight of each mouse were measured once every 2–5 days. The application of the humane endpoints was determined primarily based on tumor volume, body weight change, and systemic physical condition. […]
The statistical analyses were performed with SAS (SAS Institute Inc., ver. 9.4) in an EXSUS (EPS Corporation, ver. 10.0.3) environment. In the studies of subcutaneous tumor-transplant mouse models, the difference in mean tumor volume between each treated group and the control group was analyzed using Dunnett’s test. In the study of intracranial tumor transplanted mouse models, the difference of the mean logarithmically transformed total flux of each treated group with that of the control group was evaluated with Dunnett’s test.

[8] = system: EGFR harboring L718Q and L718V; assay: Inhibitory spectrum against other osimertinib-resistant mutations (author rebuttal); details: data not shown
[9] = system: pEGFR, pAkt, pErk1/2 in NCI-H1975 xenograft tumors; assay: Pharmacodynamic marker analysis (immunoblotting) in NCI-H1975 xenograft tumors; assay type: in vivo, mouse; details: for phosphorylation of EGFR, Akt, and Erk1/2 in tumor: 24 h
Experimental: Frozen tumor samples were homogenized in cold RIPA buffer (Thermo Fisher Scientific) supplemented with PhosSTOP (Merck KGaA) and cOmplete, Mini, EDTA-free Protease Inhibitor Cocktail (Merck KGaA) using Multi-beads Shocker (Yasui Kikai Corporation). The tumor protein extracts obtained via centrifugation of the supernatants were stored on ice until the assay. The protein concentration of the extracts was determined using BCA Protein Assay (Thermo Fisher Scientific), according to the manufacturer’s protocol. The protein concentration of the extracts was adjusted to 1 mg/mL using RIPA buffer and Lane Marker Reducing Sample Buffer (Thermo Fisher Scientific) to prepare SDS-PAGE samples; afterward, the samples were denatured by heating at 98 °C for 5 min. After cooling to room temperature, the extracts and samples were frozen until SDS-PAGE analysis. 5 μg/lane of each SDS-PAGE sample was subjected to SDS-PAGE analysis using 7.5% polyacrylamide gels (Bio-Rad Laboratories) and transferred to polyvinylidene difluoride (PVDF) membranes using a Trans-Blot Turbo Transfer System (Bio-Rad Laboratories). Membranes were blocked with the PVDF Blocking Reagent for Can Get Signal (TOYOBO). After blotting with primary antibodies, the membranes were incubated with horseradish peroxidase (HRP)-conjugated secondary antibodies. The antibodies were diluted in Can Get Signal Solution1/2 (TOYOBO) according to the manufacturer’s protocol. […] All antibodies were diluted to a concentration of 1:1000.

[10] = system: P-gp and BCRP in Caco-2 cells
[11] = system: NIH/3T3-EGFR (ex19del/T790M/C797S)-luc cells; assay: Intracranial tumor transplanted mouse allograft model; assay type: in vivo; details: 20 and 40 mg/kg; with statistical significance
Experimental: Male nude mice (BALB/cAJcl-nu/nu, 6 weeks old, microbiological grade: Specific pathogen free, CLEA Japan) were each head-fixed under anesthesia with a stereotaxic apparatus, and 2 μL of the cell suspension was injected at 0.5 mm anterior, 2.0 mm right, and 3.5 mm deep from the bregma, whereby 1.0 × 10^4 cells per mouse were transplanted. The mice were anesthetized with an intraperitoneal injection of the MMB mixed agent, a saline with 0.075 mg/mL medetomidine hydrochloride (Nippon Zenyaku Kogyo CO., Ltd.), 0.4 mg/mL midazolam (Fuji Pharma Co., Ltd.), and 0.5 mg/mL butorphanol tartrate (Meiji Seika Pharma Co., Ltd.), at a volume of 10 mL/kg body weight. Propeto (Maruishi Pharmaceutical Co., Ltd.) was applied to the eyeballs to prevent drying during the transplantation. The day of cell transplantation was defined as day 0. 150 mg/kg Luciferin (Promega Corporation) was intraperitoneally administered to measure the level of luminescence (photons/s) using an IVIS Lumina II Imaging System (PerkinElmer) on days 8, 13, and 19. Mice were anesthetized with isoflurane and placed in the prone position in the IVIS Lumina II Imaging System chamber. […] The total flux in the region of interest of the head was calculated using Living Image software (version 3.2.0.7800). […] The application of the humane endpoints was determined primarily based on body weight change, behavior, and systemic physical condition. […]

[12] = target: human recombinant EGFR Ex19del/T790M (Homo sapiens, UniProt P00533, DEL746-750/T790M); assay: EGFR biochemical kinetics assay (PhosphoSens Kinase Assay), Ki
[13] = Body weight evaluation in allograft and xenograft mouse models; assay type: in vivo; details: once-daily oral administration; NIH/3T3-EGFR allograft models (Fig. 5a–d)
Experimental: The tumor volumes were calculated using the following equation: Tumor Volume (mm^3) = 0.5 × major axis (mm) × minor axis (mm) × minor axis (mm). […] Tukey’s test (SAS with EXSUS) was used to evaluate statistical significance (p ≥ 0.05) on the logarithmically transformed mean tumor volume in each allocated group on Days 0 or 1, and no statistical significance was confirmed before initiating the experiments. During the experiments, the mice in each labeled cage were identified by the position of the cut on their pinnae. The test compounds were administered orally at a dose of 10 mL/kg. The tumor volume and body weight of each mouse were measured once every 2–5 days. The application of the humane endpoints was determined primarily based on tumor volume, body weight change, and systemic physical condition. For Pharmacodynamics Marker (PD) analysis, the mice were randomized into groups based on tumor volume when the average tumor volume reached approximately 400–600 mm^3, following the previously described procedure, including the identification of individual mice. […] Tumor samples were excised and placed in homogenate tubes, frozen in liquid nitrogen, and stored in an ultra-low temperature freezer set at −80 °C until use.
Based on the predefined humane endpoint criteria for this study, †each animal in vehicle control and
under anesthesia on day 8. […]

[14] = target: human recombinant EGFR L858R (Homo sapiens, UniProt P00533, L858R); assay: EGFR biochemical kinetics assay (PhosphoSens Kinase Assay), Ki
[15] = system: Ba/F3 cell EGFR (L858R/T790M/C797S); assay: Ba/F3-EGFR cell viability assay (CellTiter-Glo); assay type: cell-based, murine; details: Mus musculus, BaF3, Mean
Experimental: as §1, §2

Compound: C#Cc1c(-c2cnc3ccccc3c2)c2c(N)ncnc2n1C12CCC(NC(=O)c3cnc(C)cn3)(CC1)C2 [TAS3351]
- IC50 [1]: 2.84 nM
- Ki [2]: 0.018 nM
- AUC(0-t) ([3]; 20 mg/kg single oral): 72.5 µM·h
- AUC(0-t) ([3]; 40 mg/kg single oral): 202 µM·h
- AUC(0-t) ([3]; 80 mg/kg single oral): 377 µM·h
- Kp uu ([3]; 20 mg/kg): 0.68
- Kp uu ([3]; 40 mg/kg): 1.08
- Kp uu ([3]; 80 mg/kg): 1.47
- Kp ([3]; 20 mg/kg): 0.32
- Kp ([3]; 40 mg/kg): 0.51
- Kp ([3]; 80 mg/kg): 0.69
- Ki [4]: 0.224 nM
- IC50 values [5]: sub-nanomolar range
- Ki [6]: 0.0048 nM
- number of kinases whose enzymatic activity was inhibited by over 50% (255 kinases): 26
- inhibition of xenograft growth [7]: did not demonstrate statistically significant inhibition of xenograft growth
- efficacy against EGFR harboring L718Q and L718V [8]: not effective
- phosphorylation of EGFR, Akt, and Erk1/2 in tumor ([9]; 40 mg/kg single oral): restored to nearly baseline
- phosphorylation of EGFR, Akt, and Erk1/2 in tumor ([9]; 80 mg/kg single oral): partially inhibited
- phosphorylation of EGFR, Akt, and Erk1/2 in tumor vs control ([9]; 40 and 80 mg/kg single oral, 1–8 h post-administration): significantly reduced
- P-gp or BCRP substrate [10]: not a P-gp or BCRP substrate
- intracranial luciferase activity (total flux) vs vehicle [11]: reduced intracranial luciferase activity
- Ki [12]: 0.00649 nM
- body weight [13]: without apparent body weight loss
- Ki [14]: 0.259 nM
- difference in the Ki values between ex19del and L858R mutations ([14]; L858R vs ex19del): over 50 fold
- IC50 [15]: 241 nM

Source: paper PMC13181001 (Communications Medicine, 2026)
